Converted amounts (≈) assume the structure as drawn. “And” between values parts separate entries of the source, which are not always exact repeats. Identical values can stand only once.
Columns and labels:
[1] = test system: Eimeria acervulina, E. maxima, E. necatrix, E. tenella and E. brunetti; assay: Prophylactic anticoccidial activity in chickens of Habbared X breed (5 Eimeria strains); format: in vivo; details: drug in feed (JA 39, JA 42 100 ppm; Coxistac 60 ppm)
Experimental: The anticoccidial activity of the present compounds as prophylactic agents was evaluated in vivo on […] one day old (1 day after hatch) chickens of Habbared X breed. The chickens were divided into four groups of 20 birds each, and each group was located in a separate pen (1 m×1 m). The chickens were then fed with unmedicated food up to day 7 after hatch. Fresh water was supplied ad libitum .
On day 8 after hatch, the four groups were fed as follows (1 ppm=1 mg drug/kg feed): • Group #1: feed containing JA 39 (100 ppm); • Group #2: feed containing JA 42 (100 ppm); • Group #3: feed containing Coxistac (60 ppm), a known anticoccidial agent (see U.S. Pat. No. 3,857,948);
Group #4: feed containing no drug (control group).
The chickens were fed as above on day 8 and 9 after hatch. On day 10 after hatch, each chicken was infected orally by 6 000-7 000 oocysts containing a mixture of 5 mature sporulated strains, namely Eimeria acervulina, E. maxima, E. necatrix, E. tenella and E. brunetti. The groups #1-3 received drug as above from day 10 to 21 after hatch.
From day 14 to 21 after hatch, fresh fecal droplets were collected and examined daily. The average number of oocysts/g faeces was then calculated in accordance with the so-called Mc-Master technique (Soulsby, E. J., Helminths, Arthropods & Protozoa of domesticated animals, p. 789, 6th Ed., Williams & Wilkins Co. Baltimore (USA), Tindall & Cassell Ltd., London, 1968). The final weight of and mean total amount of feed consumed by each bird were also examined, and the results are summarized in Table 8 hereinbelow.

T. evansi = assay: Antitrypanosomal activity in vivo in white albino rats (Giemsa blood smears); details: individual animals
Experimental: The antitrypanosomal activity of the present compounds was evaluated in vivo on 40 white albino rats. The rats were divided into 4 groups of 10 rats each. The rats were then inoculated intraperitoneally with 10^3 organisms of T. evansi (isolated from blood of naturally infected camels) in accordance with known methodology (see Kolmer, J. A., J. Infect. Dis., 17:78-95 (1915)). The progress of the infection was monitored with the aid of standard Giemsa procedure (see Cruickshank, R., Handbook of Bacteriology, E and S Livingstone Ltd., Edinborough and London, 1961), whereby peripheral blood samples from the rats were examined under microscope. The number of Trypanosoma organisms in every blood sample was calculated and classified as follows (the numbers below are given for fields examined on a microscope slide): • +++=>10 organisms • ++=5-10 organisms • +=1-4 organisms • 0=no organisms detected
On day 1 post infection, each group of rats was subcutaneously injected with a single dose of tested compound in an amount of 50.0 mg/kg body weight. The following drugs were administered:
Group #4: saline solution (control group)

[2] = test system: Staph. epidermidis (ATCC 12228); assay: M.I.C. by broth dilution method (NCCLS 1988), gram-positive bacteria; format: cell-based; details: for MIC: Staphylococcus epidermidis, ATCC12228, in vitro broth dilution
Experimental: (§1) The antibacterial activity of the present compounds was investigated by in vitro evaluation of their M.I.C. (Minimum Inhibitory Concentration) values. The evaluation was conducted in complete accordance with the “Broth dilution method”, as outlined by the U.S. National Committee for Clinical Laboratory Standards “NCCLS 1988”.
(§2) Solutions of the present compounds were prepared by dissolving 0.01 g of a test compound in either 10% KOH (aq) or a 10% KOH/DMF mixture, after which sterile, distilled H2O was added up to a total volume of 10 ml, thereby yielding a test compound concentration of 1 000 μg/ml.
(§3) In this evaluation, the antibacterial activity of the present compounds and enrofloxacin as reference compound was tested against seven strains of gram-positive bacteria, namely Bacillus subtilus (ATCC 6633), Bacillus cereus, Streptococcus faecium, Micrococcus Luteus (ATCC 9341), Staph. aureus (ATCC 29737), Staph. epidermidis (ATCC 12228) and Staphylococcus (ATCC 6538).

Streptococcus faecium = assay: as above; format: cell-based; details: in vitro broth dilution; for MIC: Enterococcus faecium, read-out: M.I.C. values Streptoc. faecium
Experimental: as §1, §2, §3

[3] = test system: Staph. aureus (ATCC 29737); assay: as above; format: cell-based; details: for MIC: Staphylococcus aureus, ATCC29737, in vitro broth dilution
Experimental: as §1, §2, §3

[4] = test system: Micrococcus Luteus (ATCC 9341); assay: as above; format: cell-based; details: for MIC: ATCC9341, in vitro broth dilution, read-out: M.I.C. values Microc. Luteus
Experimental: as §1, §2, §3

[5] = test system: Bacillus subtilus (ATCC 6633); assay: as above; format: cell-based; details: for MIC: ATCC6633, in vitro broth dilution
Experimental: as §1, §2, §3

Bacillus cereus = assay: as above; format: cell-based; details: in vitro broth dilution
Experimental: as §1, §2, §3

[6] = test system: Staphylococcus (ATCC 6538); assay: as above; format: cell-based; details: for MIC: ATCC6538, in vitro broth dilution, read-out: M.I.C. values Staph. (ATCC 6538)
Experimental: as §1, §2, §3

[7] = day 1 post infection (day of dosing), single s.c. dose 50.0 mg/kg
[8] = day 3 post infection, single s.c. dose 50.0 mg/kg on day 1, 50 mg/kg
[9] = day 9 post infection, single s.c. dose 50.0 mg/kg on day 1, 50 mg/kg
[10] = day 11 post infection, single s.c. dose 50.0 mg/kg on day 1, 50 mg/kg
[11] = in vitro broth dilution, unit assumed

MIC [2] [µg/mL]	MIC (Streptococcus faecium) [µg/mL]	MIC [3] [µg/mL]	MIC [4] [µg/mL]	MIC [5] [µg/mL]	MIC (Bacillus cereus) [µg/mL]	MIC [6] [µg/mL]	Compound	other results
–	–	–	–	–	–	–	CC[C@@H](C(=O)[C@@H](C)[C@@H](O)[C@H](C)[C@@H]1O[C@@H]([C@@H](CC)C(=O)O)CC[C@@H]1C)[C@H]1O[C@]2(C=C[C@@H](O)[C@]3(CC[C@@](C)([C@H]4CC[C@](O)(CC)[C@H](C)O4)O3)O2)[C@H](C)C[C@@H]1C [Coxistac, reference compound]	Average number of Eimeria spp. oocysts/g faeces, day after hatch 14 ([1]; day 14 after hatch, infected day 10): 0.0 oocysts/g faeces; Average number of Eimeria spp. oocysts/g faeces, day after hatch 15 ([1]; day 15 after hatch, infected day 10): 3000 oocysts/g faeces; Average number of Eimeria spp. oocysts/g faeces, day after hatch 16 ([1]; day 16 after hatch, infected day 10): 4000 oocysts/g faeces; Average number of Eimeria spp. oocysts/g faeces, day after hatch 17 ([1]; day 17 after hatch, infected day 10): 7000 oocysts/g faeces; Average number of Eimeria spp. oocysts/g faeces, day after hatch 18 ([1]; day 18 after hatch, infected day 10): 2000 oocysts/g faeces; Average number of Eimeria spp. oocysts/g faeces, day after hatch 19 ([1]; day 19 after hatch, infected day 10): 2000 oocysts/g faeces; Average number of Eimeria spp. oocysts/g faeces, day after hatch 21 ([1]; day 21 after hatch, infected day 10): 0.0 oocysts/g faeces; Mean body weight ([1]; final weight, infected chickens): 62.0 g; Mean amount of feed consumed ([1]; mean total feed per bird, infected chickens): 120 g; Average number of Eimeria spp. oocysts/g faeces, Total ([1]; total of days 14-21 after hatch): 18000 oocysts/g faeces
–	–	–	–	–	–	–	O=C(O)c1cn(C2CC2)c2cc(N3CCC(CNC(=S)Nc4ccccc4)CC3)c(F)cc2c1=O [JA 110, 7-(4-{[(anilinocarbothioyl)amino]methyl}-1-piperidinyl)-1-cyclopropyl-6-fluoro-4-oxo-1,4-dihydro-3-quinolinecarboxylic acid]	Number of T. evansi per examined field (T. evansi; [7]): + (+=1-4 organisms); Number of T. evansi per examined field (T. evansi; [8]): ++ (++=5-10 organisms); Number of T. evansi per examined field (T. evansi; day 5 post infection, single s.c. dose 50.0 mg/kg on day 1): ++ (++=5-10 organisms); Number of T. evansi per examined field (T. evansi; day 7 post infection, single s.c. dose 50.0 mg/kg on day 1): ++ (++=5-10 organisms); Number of T. evansi per examined field (T. evansi; [9]): + (+=1-4 organisms) and 0 (0=no organisms detected) (9×); Number of T. evansi per examined field (T. evansi; [10]): + (+=1-4 organisms) and 0 (0=no organisms detected) (9×); Number of T. evansi per examined field (T. evansi; day 13 post infection, single s.c. dose 50.0 mg/kg on day 1): 0 (0=no organisms detected)
–	–	–	–	–	–	–	CC(=O)CC(=O)N(CC1CCCO1)c1cc2c(cc1F)c(=O)c(C(=O)O)cn2C1CC1 (stereo not drawn) [JA 144]	M.I.C. values Staph. epidermidis [2, 11]: 0.12 µg/mL; M.I.C. values Streptoc. faecium (Streptococcus faecium; unit assumed): 0.5 µg/mL; M.I.C. values Staph. aureus [3, 11]: 0.12 µg/mL; M.I.C. values Microc. Luteus [4, 11]: 1 µg/mL; M.I.C. values Bacillus subtilus [5, 11]: 0.12 µg/mL; M.I.C. values Bacillus cereus (Bacillus cereus; unit assumed): 0.12 µg/mL; M.I.C. values Staph. (ATCC 6538) [6, 11]: 0.06 µg/mL
0.12 (≈ 0.266 µM)	1 (≈ 2.21 µM)	0.12 (≈ 0.266 µM)	2 (≈ 4.43 µM)	0.12 (≈ 0.266 µM)	0.12 (≈ 0.266 µM)	0.12 (≈ 0.266 µM)	O=C(O)c1cn(C2CC2)c2cc(N(CCc3ccncc3)CC3CCCO3)c(F)cc2c1=O (stereo not drawn) [JA 145, 1-cyclopropyl-6-fluoro-4-oxo-7-[[2-(4-pyridinyl)ethyl](tetrahydro-2-furanylmethyl)amino]-1,4-dihydro-3-quinolinecarboxylic acid]	–
0.12 (≈ 0.266 µM)	1 (≈ 2.21 µM)	0.12 (≈ 0.266 µM)	2 (≈ 4.43 µM)	0.12 (≈ 0.266 µM)	0.12 (≈ 0.266 µM)	0.12 (≈ 0.266 µM)	O=C(O)c1cn(C2CC2)c2cc(N(CCc3ccccn3)CC3CCCO3)c(F)cc2c1=O (stereo not drawn) [JA 146, 1-cyclopropyl-6-fluoro-4-oxo-7-[[2-(2-pyridinyl)ethyl](tetrahydro-2-furanylmethyl)amino]-1,4-dihydro-3-quinolinecarboxylic acid]	–
0.12 (≈ 0.287 µM)	1 (≈ 2.39 µM)	0.12 (≈ 0.287 µM)	2 (≈ 4.78 µM)	0.12 (≈ 0.287 µM)	0.06 (≈ 0.143 µM)	0.12 (≈ 0.287 µM)	COCC(C)N(C(=O)CC(C)=O)c1cc2c(cc1F)c(=O)c(C(=O)O)cn2C1CC1 (stereo not drawn) [JA 148, 7-[acetoacetyl(2-methoxy-1-methylethyl)amino]-1-cyclopropyl-6-fluoro-4-oxo-1,4-dihydro-3-quinolinecarboxylic acid]	–
0.12 (≈ 0.231 µM)	2 (≈ 3.85 µM)	0.12 (≈ 0.231 µM)	2 (≈ 3.85 µM)	0.12 (≈ 0.231 µM)	0.12 (≈ 0.231 µM)	0.12 (≈ 0.231 µM)	COCC(C)N(c1cc2c(cc1F)c(=O)c(C(=O)O)cn2C1CC1)S(=O)(=O)c1ccc([N+](=O)[O-])cc1 (stereo not drawn) [JA 149, 1-cyclopropyl-6-fluoro-7-{(2-methoxy-1-methylethyl)[(4-nitrophenyl)sulfonyl]amino}-4-oxo-1,4-dihydro-3-quinolinecarboxylic acid]	–

Compound	MIC [2] [µg/mL]	MIC (Streptococcus faecium) [µg/mL]	MIC [3] [µg/mL]	MIC [4] [µg/mL]	MIC [5] [µg/mL]	MIC (Bacillus cereus) [µg/mL]	MIC [6] [µg/mL]	other results
O=C(O)c1cn(C2CC2)c2cc(NCc3ccncc3)c(F)cc2c1=O [JA 68, 1-cyclopropyl-6-fluoro-4-oxo-7-[(4-pyridinylmethyl)amino]-1,4-dihydro-3-quinolinecarboxylic acid]	0.25 (≈ 0.708 µM)	1 (≈ 2.83 µM)	0.12 (≈ 0.34 µM)	2 (≈ 5.66 µM)	0.12 (≈ 0.34 µM)	0.06 (≈ 0.17 µM)	0.12 (≈ 0.34 µM)	Number of T. evansi per examined field (T. evansi; [7]): + (+=1-4 organisms); Number of T. evansi per examined field (T. evansi; [8]): ++ (++=5-10 organisms) (9×) and 0 (0=no organisms detected); Number of T. evansi per examined field (T. evansi; day 5 post infection, single s.c. dose 50.0 mg/kg on day 1, 50 mg/kg): 0 (0=no organisms detected) (8×) and ++ (++=5-10 organisms) (2×); Number of T. evansi per examined field (T. evansi; day 7 post infection, single s.c. dose 50.0 mg/kg on day 1, 50 mg/kg): +++ (+++=>10 organisms) and 0 (0=no organisms detected) (9×); Number of T. evansi per examined field (T. evansi; [9]): 0 (0=no organisms detected) (9×) and dead; Number of T. evansi per examined field (T. evansi; [10]): 0 (0=no organisms detected) (9×) and dead; Number of T. evansi per examined field (T. evansi; day 13 post infection, single s.c. dose 50.0 mg/kg on day 1, 50 mg/kg): 0 (0=no organisms detected) (9×) and dead

From patent US6967205B1, “Compounds with antibacterial and antiparasitic properties” (New Pharma Research Sweden AB, priority 1999, dated 2005)
